# Laboratory results published in patent publication US20120202794A1 (priority 2011, published 2012).
# How the values were obtained:
# HCV Replicon 1b = experiment: HCV inhibition assay, HCV replicon 1b (Clone A or ET-lunet cells; RT-PCR or luciferase reporter); type: cell-based; conditions: Hepatitis C virus, 96 h, HCV replicon 1b; 4 days incubation; read-out: Replicon 1b potency EC90
# Protocol: HCV inhibition assay. Clone A or ET-lunet cells were seeded at a density of 1500 or 3000 cells per well in a 96-well plate, respectively. Test compounds serially diluted in culture medium without G418 were added to cells so that the final DMSO concentration was 0.5%. Plates were incubated at 37° C. in a 5% CO2 atmosphere for 4 days. Inhibition of HCV RNA replication was determined by real time PCR (RT-PCR) or by measuring the levels of luminescence expressed via the luciferase reporter gene encoded within the ET replicon. Briefly, for the RT-PCR assay, total RNA was extracted using the RNeasy-96 kit as recommended by the manufacturer (Qiagen, Valencia, Calif.), reversed transcribed into cDNA, and amplified using primer and probe mix for HCV 5′-NTR RNA and human ribosomal RNA (rRNA) in a one-step RT-PCR reaction as described previously (50). A relative quantification method was used to determine the extent of inhibition. The threshold cycle (Ct) of rRNA was subtracted from the Ct of HCV RNA (ΔCt). The average ΔCt of the DMSO cell controls was then subtracted from the ΔCt of the compound treated sample (ΔΔCt). Percent inhibition was determined by using the following equation: %=(1−(2^−ΔΔC^t))×100. For the luciferase-based replicon assay, luminescence was measured by using a Victor3 plate reader (Perkin-Elmer, Boston, Mass.) following the addition of Bright-Glo reagent as recommended by the manufacturer (Promega, Madison, Wis.). Percent inhibition of HCV replication was determined by comparing the change in luminescence of the drug treated wells versus the DMSO cell controls. EC50 and EC90 values, the concentrations at which 50% and 90% inhibition were achieved, were determined using the GraphPad Prism software (San Diego, Calif.).
# [1] = Cell cytotoxicity assay (MTS), CC90 as reported in Table 1, cell line not stated; type: cell-based; conditions: human; cell line not given
# Protocol: Cell cytotoxicity assays. Each compound (serially diluted from 100 μM) was added to Huh7 (2×10^3 cells/well), HepG2 (2×10^3 cells/well), BxPC3 (2×10^3 cells/well), or CEM (5×10^3 cells/well) cells and allowed to incubate for 8 days at 37° C. A medium only control was used to determine the minimum absorbance value […]. At the end of the growth period, MTS dye from the CellTiter 96 Aqueous One Solution Cell Proliferation Assay kit (Promega) was added to each well and the plate was incubated for an additional 2 hours. The absorbance at 490 nm was read with a Victor3 plate reader (Perkin Elmer) using the medium only control wells as blanks. The 90% inhibition value (CC90) was determined by comparing the absorbance in wells containing cells and test compound to untreated cell control wells.
Compound,EC90 (HCV Replicon 1b) [µM],CC90 at 8 days [1] [µM]
CC(C)C[C@H]1C(=O)N[C@@H](c2ccccc2)CN1C(=O)c1nc(-c2ccc(F)cc2)no1 [Compound 151],0.04,> 10
CC(C)C[C@H]1C(=O)N[C@@H](C2CCCC2)CN1C(=O)c1nc(-c2ccc(F)cc2)no1 [Compound 152],0.11,> 10
CC(C)C[C@H]1C(=O)N[C@@H](C(C)C)CN1C(=O)c1nc(-c2ccc(F)cc2)no1 [Compound 153],0.22,> 10
CSC[C@H]1CN(C(=O)c2nc(-c3ccc(F)cc3)no2)[C@@H](CC(C)C)C(=O)N1 [Compound 154],0.78,> 10
CC(C)C[C@H]1CN(C(=O)c2cc(-c3ccc([N+](=O)[O-])cc3)on2)[C@@H](CC(C)C)C(=O)N1 [Compound 155],2.6,> 10
CC(C)C[C@H]1C(=O)N[C@@H](C2CCCCC2)CN1C(=O)c1cc(-c2ccc(F)cc2F)on1 [Compound 156],1.15,> 10
CC(C)C[C@H]1C(=O)N[C@@H](C2CCCC2)CN1C(=O)c1cc(-c2ccc(F)cc2F)on1 [Compound 157],0.49,> 10
CCC[C@H]1CN(C(=O)c2cc(-c3ccc(Cl)c(F)c3)on2)[C@@H](CC(C)C)C(=O)N1 [Compound 158],0.44,> 10
CC(C)C[C@H]1C(=O)N[C@@H](C2CCCCC2)CN1C(=O)c1cc(-c2ccc(Cl)c(F)c2)on1 [Compound 159],0.71,> 10
CC(C)C[C@H]1C(=O)N[C@@H](C2CCCC2)CN1C(=O)c1cc(-c2ccc(Cl)c(F)c2)on1 [Compound 160],0.41,> 10
CCC[C@H]1CN(C(=O)c2cc(-c3ccc(F)cc3)on2)[C@@H](CC(C)C)C(=O)N1 [Compound 161],0.07,> 10
CC(C)C[C@H]1C(=O)N[C@@H](C2CCCCC2)CN1C(=O)c1cc(-c2ccc(F)cc2)on1 [Compound 162],1.8,> 10
CC(C)C[C@H]1C(=O)N[C@@H](C2CCCC2)CN1C(=O)c1cc(-c2ccc(F)cc2)on1 [Compound 163],0.09,> 10
CCC[C@H]1CN(C(=O)c2cc(-c3ccc(F)cc3F)on2)[C@@H](CC(C)C)C(=O)N1 [Compound 165],0.34,> 10
CC(C)C[C@H]1C(=O)N[C@@H](CC2CC2)CN1C(=O)c1cc(-c2ccc(Cl)cc2)on1 [Compound 166],0.36,> 10
CC(C)C[C@H]1C(=O)N[C@@H](CC2CC2)CN1C(=O)c1cc(-c2ccc(F)cc2)on1 [Compound 167],0.45,> 10
CC(C)C[C@H]1C(=O)N[C@@H](CC2CC2)CN1C(=O)c1cc(-c2cccs2)on1 [Compound 168],0.9,> 10
CCC[C@H]1CN(C(=O)c2cc(-c3cccs3)on2)[C@@H](CC(C)C)C(=O)N1 [Compound 169],0.15,> 10
CCC[C@H]1CN(C(=O)c2cc(-c3ccc(Cl)cc3)on2)[C@@H](CC(C)C)C(=O)N1 [Compound 170],0.05,> 10
CC(C)C[C@H]1C(=O)N[C@@H](C2CCCCC2)CN1C(=O)c1cc(-c2ccc(Cl)cc2)on1 [Compound 171],0.15,> 10
CC(C)C[C@H]1C(=O)N[C@@H](C2CCCCC2)CN1C(=O)c1cc(-c2cccs2)on1 [Compound 172],0.41,> 10
CC(C)C[C@H]1C(=O)N[C@@H](C2CCCC2)CN1C(=O)c1cc(-c2ccc(Cl)cc2)on1 [Compound 173],0.12,> 10

Compound,EC90 (HCV Replicon 1b) [µM],CC90 at 8 days [1] [µM]
CC(C)C[C@H]1C(=O)N[C@@H](C2CCCC2)CN1C(=O)c1cc(-c2cccs2)on1 [Compound 174],0.25,> 10
CC(C)C[C@H]1C(=O)N[C@@H](C(C)C)CN1C(=O)c1cc(-c2ccc(F)cc2)on1 [Compound 175],0.17,> 10
CC(C)C[C@H]1CN(C(=O)c2cc(-c3ccc(S(C)(=O)=O)cc3)on2)[C@@H](CC(C)C)C(=O)N1 [Compound 176],> 20,> 10
CC(C)C[C@H]1C(=O)N[C@@H](c2ccccc2)CN1C(=O)c1cc(-c2ccc(F)cc2)on1 [Compound 178],0.05,> 10
CC(C)C[C@H]1CN(C(=O)c2cc(-c3ccc(OC(F)(F)F)cc3)on2)[C@@H](CC(C)C)C(=O)N1 [Compound 179],14.9,> 10
CC(C)C[C@H]1C(=O)N[C@@H](C2CC2)CN1C(=O)c1cc(-c2ccc(F)cc2)on1 [Compound 180],0.6,> 10
CC(C)C[C@H]1C(=O)N[C@@H](C(C)C)CN1C(=O)c1cc(-c2ccc(Cl)cc2)on1 [Compound 181],0.23,> 10
CSC[C@H]1CN(C(=O)c2cc(-c3ccc(Cl)cc3)on2)[C@@H](CC(C)C)C(=O)N1 [Compound 182],0.55,> 10
CC(C)C[C@H]1C(=O)N[C@@H](c2ccccc2)CN1C(=O)c1cc(-c2ccc(Cl)cc2)on1 [Compound 183],0.06,> 10
CCC[C@H]1CN(C(=O)c2cc(-c3ccc(F)c(F)c3)on2)[C@@H](CC(C)C)C(=O)N1 [Compound 184],0.14,> 10
CC(C)C[C@H]1C(=O)N[C@@H](C2CCCCC2)CN1C(=O)c1cc(-c2ccc(F)c(F)c2)on1 [Compound 185],0.61,> 10
CC(C)C[C@H]1C(=O)N[C@@H](C2CCCC2)CN1C(=O)c1cc(-c2ccc(F)c(F)c2)on1 [Compound 186],0.26,> 10
CC(C)C[C@H]1C(=O)N[C@@H](C(C)C)CN1C(=O)c1cc(-c2ccc(F)c(F)c2)on1 [Compound 187],0.62,> 10
CC(C)C[C@H]1C(=O)N[C@@H](c2ccccc2)CN1C(=O)c1cc(-c2ccc(F)c(F)c2)on1 [Compound 188],0.18,> 10
CCC[C@H]1CN(C(=O)c2cc(-c3ccc(F)cc3)no2)[C@@H](CC(C)C)C(=O)N1 [Compound 189],0.11,> 10
CC(C)C[C@H]1CN(C(=O)c2cc(-c3ccc(Cl)cc3)no2)[C@@H](CC(C)C)C(=O)N1 [Compound 190],0.32,> 10
CC(C)C[C@H]1C(=O)N[C@@H](CC2CC2)CN1C(=O)c1cc(-c2ccc(F)cc2)no1 [Compound 191],0.12,> 10
CC(C)C[C@H]1C(=O)N[C@@H](C2CCCCC2)CN1C(=O)c1cc(-c2ccc(F)cc2)no1 [Compound 193],0.05,> 10
CC(C)C[C@H]1C(=O)N[C@@H](C2CCCC2)CN1C(=O)c1cc(-c2ccc(F)cc2)no1 [Compound 194],0.04,> 10
CC(C)C[C@H]1CN(Cc2cc(-c3ccccc3)on2)[C@@H](CC(C)C)C(=O)N1 [Compound 195],0.75,> 10
CC(C)C[C@H]1CN(Cc2cc(-c3ccc(F)cc3)on2)[C@@H](CC(C)C)C(=O)N1 [Compound 196],0.08,> 10
